Measured values: ChEMBL document CHEMBL5291721, “A preclinical secondary pharmacology resource illuminates target-adverse drug reaction associations of marketed drugs” (Nat Commun, 2023)

Tests used:
[1] = target: Gamma-aminobutyric acid receptor subunit alpha-1/alpha-2/beta-2/gamma-2 (Homo sapiens, UniProt P14867+P18507+P47869+P47870); assay type: functional, cell-based
B1 bradykinin receptor = target: T1, B1 bradykinin receptor (Homo sapiens, UniProt P46663)
T1 sequence (P46663 whole entry): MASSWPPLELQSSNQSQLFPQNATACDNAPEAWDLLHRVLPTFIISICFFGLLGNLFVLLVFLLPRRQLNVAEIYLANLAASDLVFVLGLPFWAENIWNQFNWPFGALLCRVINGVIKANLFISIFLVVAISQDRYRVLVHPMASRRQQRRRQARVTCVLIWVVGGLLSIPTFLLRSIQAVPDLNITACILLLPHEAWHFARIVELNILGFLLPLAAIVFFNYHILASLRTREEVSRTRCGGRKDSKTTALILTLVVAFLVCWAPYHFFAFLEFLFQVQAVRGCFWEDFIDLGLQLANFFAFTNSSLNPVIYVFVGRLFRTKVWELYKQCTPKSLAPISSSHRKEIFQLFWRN

[2] = target: T2, Corticotropin-releasing factor receptor 2 (Homo sapiens, UniProt Q13324)
T2 sequence (Q13324 whole entry): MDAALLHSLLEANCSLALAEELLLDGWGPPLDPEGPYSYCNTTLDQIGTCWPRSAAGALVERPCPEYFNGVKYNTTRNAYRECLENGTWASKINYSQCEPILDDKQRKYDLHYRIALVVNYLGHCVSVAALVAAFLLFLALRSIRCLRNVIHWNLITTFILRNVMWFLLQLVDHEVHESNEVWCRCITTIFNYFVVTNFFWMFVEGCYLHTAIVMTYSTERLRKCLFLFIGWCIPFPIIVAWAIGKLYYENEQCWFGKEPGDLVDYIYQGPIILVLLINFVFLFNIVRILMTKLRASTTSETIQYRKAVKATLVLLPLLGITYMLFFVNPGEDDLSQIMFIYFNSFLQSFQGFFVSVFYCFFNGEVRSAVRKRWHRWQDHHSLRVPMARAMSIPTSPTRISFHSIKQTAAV

[3] = target: T3, Endothelin receptor type B (Homo sapiens, UniProt P24530)
T3 sequence (P24530 whole entry): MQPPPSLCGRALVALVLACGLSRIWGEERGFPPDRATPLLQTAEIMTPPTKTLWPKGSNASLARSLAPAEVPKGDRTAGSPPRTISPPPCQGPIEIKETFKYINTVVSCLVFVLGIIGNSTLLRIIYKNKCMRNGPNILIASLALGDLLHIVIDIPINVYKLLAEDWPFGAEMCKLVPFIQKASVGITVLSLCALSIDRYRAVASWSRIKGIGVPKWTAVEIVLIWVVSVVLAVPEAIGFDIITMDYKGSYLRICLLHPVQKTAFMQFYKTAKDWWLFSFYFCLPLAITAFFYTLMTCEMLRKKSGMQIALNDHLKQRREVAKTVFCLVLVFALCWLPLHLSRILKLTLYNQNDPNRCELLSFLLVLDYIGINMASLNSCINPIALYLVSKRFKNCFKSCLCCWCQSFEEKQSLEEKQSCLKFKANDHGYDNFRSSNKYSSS

Glucagon receptor = Glucagon receptor (Homo sapiens, UniProt P47871)
[4] = target: T4, Gastric inhibitory polypeptide receptor (Homo sapiens, UniProt P48546)
T4 sequence (P48546 whole entry): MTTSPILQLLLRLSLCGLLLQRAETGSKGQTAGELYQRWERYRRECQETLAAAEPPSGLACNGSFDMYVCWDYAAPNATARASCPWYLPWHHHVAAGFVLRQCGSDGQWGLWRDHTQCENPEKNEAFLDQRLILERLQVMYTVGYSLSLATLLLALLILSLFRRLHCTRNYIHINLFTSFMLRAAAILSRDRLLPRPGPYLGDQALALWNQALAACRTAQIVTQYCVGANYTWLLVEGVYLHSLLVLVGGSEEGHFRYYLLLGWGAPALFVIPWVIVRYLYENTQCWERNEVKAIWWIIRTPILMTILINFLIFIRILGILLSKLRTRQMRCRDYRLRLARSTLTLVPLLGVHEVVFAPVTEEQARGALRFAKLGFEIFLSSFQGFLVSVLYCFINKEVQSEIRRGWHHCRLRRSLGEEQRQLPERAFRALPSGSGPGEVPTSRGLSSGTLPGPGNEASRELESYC

Progesterone receptor = target: T5, Progesterone receptor (Homo sapiens, UniProt P06401)
T5 sequence (P06401 whole entry): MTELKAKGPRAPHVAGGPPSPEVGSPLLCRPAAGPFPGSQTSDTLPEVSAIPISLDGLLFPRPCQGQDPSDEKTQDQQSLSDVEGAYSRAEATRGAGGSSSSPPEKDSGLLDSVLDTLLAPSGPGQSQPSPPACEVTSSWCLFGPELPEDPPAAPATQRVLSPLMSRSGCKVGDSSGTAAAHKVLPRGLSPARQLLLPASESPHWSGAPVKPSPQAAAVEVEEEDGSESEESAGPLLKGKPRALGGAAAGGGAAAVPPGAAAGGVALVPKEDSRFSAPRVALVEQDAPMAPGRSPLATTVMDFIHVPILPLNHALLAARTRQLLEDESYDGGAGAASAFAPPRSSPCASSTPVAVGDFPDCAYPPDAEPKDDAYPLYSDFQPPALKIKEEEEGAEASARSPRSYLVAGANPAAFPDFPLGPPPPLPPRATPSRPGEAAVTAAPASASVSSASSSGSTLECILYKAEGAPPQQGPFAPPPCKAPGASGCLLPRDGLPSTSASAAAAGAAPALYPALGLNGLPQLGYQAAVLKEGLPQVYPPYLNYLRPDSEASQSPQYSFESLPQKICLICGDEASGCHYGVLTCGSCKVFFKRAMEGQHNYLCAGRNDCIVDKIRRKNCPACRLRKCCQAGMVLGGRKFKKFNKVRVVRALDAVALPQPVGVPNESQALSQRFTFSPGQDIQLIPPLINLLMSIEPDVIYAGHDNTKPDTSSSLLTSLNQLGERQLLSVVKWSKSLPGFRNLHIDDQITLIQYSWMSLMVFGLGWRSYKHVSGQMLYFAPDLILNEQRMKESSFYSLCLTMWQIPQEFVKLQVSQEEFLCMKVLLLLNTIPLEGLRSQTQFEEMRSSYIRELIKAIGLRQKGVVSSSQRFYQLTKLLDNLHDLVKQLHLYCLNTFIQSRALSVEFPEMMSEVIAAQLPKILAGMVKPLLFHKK

D(1A) dopamine receptor = D(1A) dopamine receptor (Homo sapiens, UniProt P21728)
Also: assay procedure not described here.

Chain of Glucagon receptor (P47871 whole entry): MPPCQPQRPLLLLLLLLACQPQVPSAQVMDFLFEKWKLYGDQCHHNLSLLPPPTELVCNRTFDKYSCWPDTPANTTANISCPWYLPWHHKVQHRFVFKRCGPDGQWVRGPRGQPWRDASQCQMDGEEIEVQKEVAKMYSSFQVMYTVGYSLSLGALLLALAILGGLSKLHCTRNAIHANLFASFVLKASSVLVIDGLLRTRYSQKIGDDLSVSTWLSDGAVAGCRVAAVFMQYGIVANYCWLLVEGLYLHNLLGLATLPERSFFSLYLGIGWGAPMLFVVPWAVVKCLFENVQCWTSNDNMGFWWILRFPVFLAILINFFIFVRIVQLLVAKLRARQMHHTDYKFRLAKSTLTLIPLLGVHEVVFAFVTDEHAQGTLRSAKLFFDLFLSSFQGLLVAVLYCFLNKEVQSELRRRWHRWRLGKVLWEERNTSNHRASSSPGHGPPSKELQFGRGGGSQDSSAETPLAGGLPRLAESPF
Chain of Gamma-aminobutyric acid receptor subunit alpha-1/alpha-2/beta-2/gamma-2 (P14867 whole entry): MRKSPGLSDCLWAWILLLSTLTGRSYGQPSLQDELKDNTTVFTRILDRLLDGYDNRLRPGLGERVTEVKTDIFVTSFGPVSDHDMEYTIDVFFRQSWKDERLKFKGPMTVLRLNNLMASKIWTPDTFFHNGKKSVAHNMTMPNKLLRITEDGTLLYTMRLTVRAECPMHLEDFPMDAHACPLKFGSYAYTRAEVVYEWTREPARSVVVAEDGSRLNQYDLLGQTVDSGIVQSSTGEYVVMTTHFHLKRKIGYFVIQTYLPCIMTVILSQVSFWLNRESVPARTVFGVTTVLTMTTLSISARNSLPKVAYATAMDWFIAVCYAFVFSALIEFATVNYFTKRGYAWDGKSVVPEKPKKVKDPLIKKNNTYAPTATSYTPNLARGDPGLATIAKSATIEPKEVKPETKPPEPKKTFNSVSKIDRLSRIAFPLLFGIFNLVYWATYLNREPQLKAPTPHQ
Chain of Gamma-aminobutyric acid receptor subunit alpha-1/alpha-2/beta-2/gamma-2 (P47870 whole entry): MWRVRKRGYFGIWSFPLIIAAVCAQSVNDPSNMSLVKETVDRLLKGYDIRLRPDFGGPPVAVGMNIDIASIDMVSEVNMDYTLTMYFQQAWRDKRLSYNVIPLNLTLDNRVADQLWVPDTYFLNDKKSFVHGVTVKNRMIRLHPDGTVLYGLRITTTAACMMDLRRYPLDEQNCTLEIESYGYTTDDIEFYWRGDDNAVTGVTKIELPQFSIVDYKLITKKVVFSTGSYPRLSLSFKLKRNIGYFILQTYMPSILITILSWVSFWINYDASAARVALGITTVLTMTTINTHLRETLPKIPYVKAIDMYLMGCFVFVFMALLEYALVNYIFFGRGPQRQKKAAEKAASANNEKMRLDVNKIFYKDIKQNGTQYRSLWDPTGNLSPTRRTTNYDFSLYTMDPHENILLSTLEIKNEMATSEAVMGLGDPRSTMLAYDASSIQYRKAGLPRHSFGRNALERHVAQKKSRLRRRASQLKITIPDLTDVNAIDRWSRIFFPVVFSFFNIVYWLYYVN
Chain of Gamma-aminobutyric acid receptor subunit alpha-1/alpha-2/beta-2/gamma-2 (P18507 whole entry): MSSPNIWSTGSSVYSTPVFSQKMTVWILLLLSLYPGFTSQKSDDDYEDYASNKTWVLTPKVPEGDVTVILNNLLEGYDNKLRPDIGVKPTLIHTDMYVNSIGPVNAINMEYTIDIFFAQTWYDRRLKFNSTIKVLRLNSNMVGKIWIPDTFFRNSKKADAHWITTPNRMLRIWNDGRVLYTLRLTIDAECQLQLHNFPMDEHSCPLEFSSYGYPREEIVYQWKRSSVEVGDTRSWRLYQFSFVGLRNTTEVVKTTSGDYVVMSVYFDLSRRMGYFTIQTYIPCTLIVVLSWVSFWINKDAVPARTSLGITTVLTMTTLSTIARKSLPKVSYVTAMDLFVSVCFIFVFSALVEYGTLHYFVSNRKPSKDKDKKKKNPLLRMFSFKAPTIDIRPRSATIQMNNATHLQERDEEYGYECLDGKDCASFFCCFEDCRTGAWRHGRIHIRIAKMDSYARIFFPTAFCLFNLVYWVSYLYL
Chain of Gamma-aminobutyric acid receptor subunit alpha-1/alpha-2/beta-2/gamma-2 (P47869 whole entry): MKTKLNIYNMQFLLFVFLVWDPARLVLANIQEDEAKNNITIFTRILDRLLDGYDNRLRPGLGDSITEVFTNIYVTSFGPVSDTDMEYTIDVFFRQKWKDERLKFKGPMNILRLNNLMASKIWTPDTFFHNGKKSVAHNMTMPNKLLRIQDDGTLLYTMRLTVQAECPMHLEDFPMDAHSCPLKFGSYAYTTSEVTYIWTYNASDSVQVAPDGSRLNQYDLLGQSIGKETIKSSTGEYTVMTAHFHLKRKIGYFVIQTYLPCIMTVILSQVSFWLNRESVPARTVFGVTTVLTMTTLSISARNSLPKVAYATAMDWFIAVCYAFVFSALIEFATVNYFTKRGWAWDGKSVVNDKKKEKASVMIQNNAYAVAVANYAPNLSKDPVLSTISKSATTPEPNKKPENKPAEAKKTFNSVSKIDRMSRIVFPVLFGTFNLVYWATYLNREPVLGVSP
Chain of D(1A) dopamine receptor (P21728 whole entry): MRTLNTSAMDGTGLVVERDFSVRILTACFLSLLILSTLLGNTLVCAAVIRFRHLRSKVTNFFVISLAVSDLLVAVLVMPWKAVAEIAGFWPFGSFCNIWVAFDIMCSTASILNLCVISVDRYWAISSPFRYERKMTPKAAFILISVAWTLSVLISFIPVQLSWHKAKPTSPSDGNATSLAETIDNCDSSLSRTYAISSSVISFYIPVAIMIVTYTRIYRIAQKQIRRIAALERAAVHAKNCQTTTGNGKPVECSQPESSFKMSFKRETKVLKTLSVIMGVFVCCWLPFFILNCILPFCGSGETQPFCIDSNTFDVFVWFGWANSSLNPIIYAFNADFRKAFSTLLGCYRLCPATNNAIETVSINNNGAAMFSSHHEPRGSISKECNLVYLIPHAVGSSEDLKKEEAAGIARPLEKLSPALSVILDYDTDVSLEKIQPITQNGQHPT

With `CN1C(=O)N(C)C2C1N(C)C(=O)N2C` (centres undefined) [MEBICAR] the AC50 [1] was greater than 30 µM.

With `CN(C)CCCN1c2ccccc2Sc2ccccc21` [PROMAZINE] the AC50 (B1 bradykinin receptor) was greater than 30 µM, the AC50 [2] was greater than 30 µM and the AC50 [3] was greater than 30 µM. For the same compound, the AC50 (Glucagon receptor) was greater than 30 µM, the AC50 [4] was greater than 30 µM and the AC50 (Progesterone receptor) was greater than 30 µM. For the same compound, the AC50 (D(1A) dopamine receptor) was 1.08 µM.

`Nc1ccc(/N=N/c2ccccc2)c(N)n1` [PHENAZOPYRIDINE] was tested, and the AC50 [1] was greater than 30 µM.

`CC(=O)N(CC(O)CO)c1c(I)c(C(=O)NCC(O)CO)c(I)c(C(=O)NCC(O)CO)c1I` (centres undefined) [IOHEXOL] gave an AC50 (Progesterone receptor) greater than 30 µM.

For `O=C(O)c1cccc(-c2noc(-c3ccccc3F)n2)c1`, the AC50 (Progesterone receptor) was greater than 30 µM.

For `C=C1C[C@@H]2[C@H](CC[C@]3(C)C(=O)CC[C@@H]23)[C@@]2(C)C=CC(=O)C=C12` [EXEMESTANE], the AC50 (B1 bradykinin receptor) was greater than 30 µM, the AC50 [2] was greater than 30 µM and the AC50 [3] was greater than 30 µM. The AC50 (Glucagon receptor) was greater than 30 µM, the AC50 [4] was greater than 30 µM and the AC50 (Progesterone receptor) was 29.3 µM.

In the case of `CCCC(=O)N1CCCN(c2nc(N)c3cc(OC)c(OC)cc3n2)CC1` [BUNAZOSIN], the AC50 [1] is reported as greater than 30 µM.

With `O=C(O)CCn1c2c(c3ccccc31)C[C@H](NS(=O)(=O)c1ccc(F)cc1)CC2` [RAMATROBAN] the AC50 (B1 bradykinin receptor) was greater than 10 µM, the AC50 [3] was greater than 10 µM and the AC50 (Glucagon receptor) was greater than 10 µM. For the same compound, the AC50 (D(1A) dopamine receptor) was 6.01 µM.

`NS(=O)(=O)c1cc2c(cc1Cl)NC(CC1CCCC1)NS2(=O)=O` (centres undefined) [CYCLOPENTHIAZIDE] gave an AC50 [1] greater than 30 µM.

Work on `CO/N=C(\C(=O)N[C@@H]1C(=O)N2C(C(=O)OCOC(=O)C(C)(C)C)=C(C)CS[C@H]12)c1csc(N)n1` yielded an AC50 [1] greater than 30 µM.

For `O=C(Nc1ccccc1)OCC(CN1CCCCC1)OC(=O)Nc1ccccc1` (centres undefined) [DIPERODON], the AC50 (B1 bradykinin receptor) was greater than 30 µM, the AC50 [2] was greater than 30 µM and the AC50 [3] was greater than 30 µM. For the same compound, the AC50 (Glucagon receptor) was greater than 30 µM, the AC50 [4] was greater than 30 µM and the AC50 (Progesterone receptor) was greater than 30 µM. It also gave an AC50 (D(1A) dopamine receptor) greater than 10 µM.

In the case of `CC(C)(N)Cc1ccc(Cl)cc1` [CHLORPHENTERMINE], the AC50 (B1 bradykinin receptor) is reported as greater than 30 µM, the AC50 [2] is reported as greater than 30 µM and the AC50 [3] is reported as greater than 30 µM. For the same compound, the AC50 (Glucagon receptor) was greater than 30 µM, the AC50 [4] was greater than 30 µM and the AC50 (Progesterone receptor) was greater than 30 µM. It also gave an AC50 (D(1A) dopamine receptor) greater than 10 µM.

`N/N=c1/cc2c(n[nH]1)CCN(C(=O)c1ccccc1)C2` [ENDRALAZINE] was tested, and the AC50 [1] was greater than 30 µM.

In the case of `O=P(O)(O)C(O)(Cc1cccnc1)P(=O)(O)O` [RISEDRONIC ACID], the AC50 (B1 bradykinin receptor) is reported as greater than 30 µM, the AC50 [2] is reported as greater than 30 µM and the AC50 [3] is reported as greater than 30 µM. It also gave an AC50 (Glucagon receptor) greater than 30 µM, an AC50 [4] greater than 30 µM and an AC50 (Progesterone receptor) greater than 30 µM. It also gave an AC50 (D(1A) dopamine receptor) greater than 10 µM.

`COCC1=C(C(=O)OC(C)OC(=O)OC(C)C)N2C(=O)[C@@H](NC(=O)/C(=N\OC)c3csc(N)n3)[C@H]2SC1` (some centres undefined) [CEFPODOXIME PROXETIL] was tested, and the AC50 [1] was greater than 30 µM.

`O=C1CCC(N2C(=O)c3ccccc3C2=O)C(=O)N1` (centres undefined) [THALIDOMIDE] showed an AC50 (B1 bradykinin receptor) greater than 30 µM, an AC50 [2] greater than 30 µM and an AC50 [3] greater than 30 µM. The AC50 (Glucagon receptor) was greater than 30 µM, the AC50 [4] was greater than 30 µM and the AC50 (Progesterone receptor) was greater than 30 µM. It also gave an AC50 (D(1A) dopamine receptor) greater than 10 µM.
